In PMC11477875, “Ecotoxicity and Mutagenicity Assessment of Novel Antifungal Agents VT-1161 and T-2307” (Molecules, 2024):
In brackets after ≈: the same amount, converted by molar mass. Read-outs that look alike come from different tables or passages of the source.

Key:
D. magna [1] = assay: Literature D. magna toxicity data used for hazard ranking; type: in vivo, Daphnia magna; settings: for Hazard Ranking: GHS, from literature EC50 D. magna 48 h
Source text: (§1) The hazard ranking of antifungal compounds is crucial for understanding their environmental impact and guiding regulatory decisions. This study utilizes data from existing literature to classify the effective concentrations (EC50) of various antifungal compounds according to the Globally Harmonized System of Classification and Labelling of Chemicals (GHS).
(§2) Furthermore, multiple fungicide compounds were classified according to the Globally Harmonized System of Classification and Labeling of Chemicals (GHS) to compare the hazard ranking of substances currently on the market and the two substances of this study.

D. magna [2] = settings: cited from earlier work
Green algae [3] = settings: cited from earlier work
R. subcapitata [4] = assay: Literature R. subcapitata toxicity data used for hazard ranking; type: cell-based, Raphidocelis subcapitata; settings: GHS, from literature EC50 R. subcapitata 72 h
Source text: as §1, §2

Green algae [5] = assay: Literature green algae toxicity data used for hazard ranking; type: cell-based; settings: GHS
Source text: as §1, §2

R. subcapitata [6] = settings: cited from earlier work
Daphnia magna = Daphnia magna acute immobilization test (this study); type: in vivo; settings: for immobility: 50 mg L^−1; for Hazard Ranking: GHS, from EC50 D. magna 48 h, this study
Method: The immobilization tests with D. magna were conducted following ISO guidelines using an in-house culture at the Hygiene Department at the UNINA. Organisms under 24 h old were exposed to concentrations of 1.56, 3.12, 6.25, 12.50, 25, and 50 mg L^−1 and to a negative control of freshwater media. Each concentration had four replicates containing five organisms each. The exposure was conducted at a temperature of 20 ± 1 °C and under continuous illumination of approx. 1000 lux. Immobilization was assessed at 24 and 48 h after exposure using a stereomicroscope.
(§3) Data were analyzed with R Studio for Windows (Version 2023.06.0). The effective concentrations causing 50% of the response on the organisms A. fischeri, R. subcapitata, and D. magna were estimated by fitting on dose–response models using the extension package “drc” [49]. For the data analysis of R. subcapitata and A. fischeri tests, the measurements were normalized to the control to estimate an inhibition percentage.

Raphidocelis subcapitata = Raphidocelis subcapitata growth inhibition test (this study); type: cell-based; settings: for Hazard Ranking: GHS, from EC50 R. subcapitata 72 h, this study
Method: The growth inhibition test with R. subcapitata was conducted following ISO guidelines using an in-house culture at the Hygiene Department at the UNINA. Algal cultures were incubated in Erlenmeyer flasks at 20 ± 1 °C on a shaker at 100 rpm and under continuous daylight fluorescent tube illumination of approximately 6300 lux with […]. The initial inoculum concentration was set at 10^4 cells mL^−1, exposed to the concentrations of 1.56, 3.12, 6.25, 12.50, 25, and 50 mg L^−1 and to a negative control of freshwater media. Six replicates were set up for both the control samples and the treatments and were maintained under the same conditions as the algal culture for 72 h.
as §3

Aliivibrio fischeri = Aliivibrio fischeri luminescence inhibition test (this study); type: cell-based
Method: The luminescence inhibition test was performed on Allivibrio fischeri (strain NRRL-B-11177), purchased from WaterTox STD (ECOtest S.L., Valencia, Spain), and performed according to [46]. The luminescence was measured using a Microtox luminometer Model 500, (AZUR Environmental, Carlsbad, CA, USA) equipped with a cell incubated at a constant temperature of 15 ± 1 °C, and readings were taken after 30 min of exposure at a wavelength of 490 nm. The Osmotic Adjustment Solution was added to the media to adapt the marine bacterium to freshwater. […] Data were analyzed with R Studio for Windows (Version 2023.06.0). The effective concentrations causing 50% of the response on the organisms A. fischeri, R. subcapitata, and D. magna were estimated by fitting on dose–response models using the extension package “drc” [49]. For the data analysis of R. subcapitata and A. fischeri tests, the measurements were normalized to the control to estimate an inhibition percentage.

[7] = test system: Salmonella typhimurium strain TA100; assay: Salmonella typhimurium mutagenicity assay; type: cell-based; settings: for mutagenicity (result in words): TA100, 1.56 and 50 mg L^−1; for mutagenicity ratio: TA100, both concentrations 1.56 and 50 mg L^−1, mutagenic if ratio 2 or greater
Method: The mutagenicity in Salmonella typhimurium strain TA100 was assessed by observing the potential mutations that would allow the bacteria to grow without needing histidine (his-), following the protocol. For the assay, a kit obtained from ECOTOX LDS (Milan, Italy) was used to perform the test. Two exposure concentrations of 1.56 and 50 mg L^−1 of each compound were used and bromocresol purple was added as a pH indicator. Distilled water served as the negative control and sodium azide as the positive control for TA100 without S9 ([…]).
The plates were incubated at 37 °C for 3 to 5 days and sealed in hermetic plastic bags to avoid contamination. […] Wells that remained purple indicated a negative result (non-mutagenic compound).
For the test organism S. typhimurium, results were expressed as the mutagenicity ratio. This was calculated by dividing the number of revertants (his+) in the treatments by the number of naturally occurring (negative control). The treatments were considered mutagenic if the mutagenicity ratio was 2 or greater.

[8] = test system: A. fischeri, R. subcapitata, and D. magna; assay: Summary over the species tested (A. fischeri, R. subcapitata, D. magna) and GHS classification
Method: as §3, §2

## OC(Cn1cncn1)(Cn1cncn1)c1ccc(F)cc1F [Fluconazole]
D. magna [1]; from literature EC50 D. magna, EC50 > 100 mg L^−1
  GHS hazard category (in words): not harmful
D. magna [2]; 48 h ref 30
  EC50: 0.002766 µg/mL (≈ 0.00903 µM)
D. magna [2]; 48 h ref 37
  EC50: 530 µg/mL (≈ 1730 µM)
Green algae [3]; 96 h ref 30
  EC50: 0.001162 µg/mL (≈ 0.00379 µM)
Green algae [3]; 96 h ref 37
  EC50: 55.4 µg/mL (≈ 181 µM)

## CC(=O)N1CCN(c2ccc(OCC3COC(Cn4ccnc4)(c4ccc(Cl)cc4Cl)O3)cc2)CC1 (centres unmarked) [Ketoconazole]
D. magna [1]
  Hazard Ranking: *** (Toxic (<1 mg L^−1 ≤ 10 mg L^−1))
R. subcapitata [4]
  Hazard Ranking: **** (Very toxic (≤1 mg L^−1))
Green algae [5]; from literature EC50 green algae 72 h
  Hazard Ranking: **** (Very toxic (≤1 mg L^−1))
Green algae [5]; from literature EC50 green algae 96 h
  Hazard Ranking: *** (Toxic (<1 mg L^−1 ≤ 10 mg L^−1))
D. magna [2]; 48 h ref 30
  EC50: 2.39 µg/mL (≈ 4.5 µM)
D. magna [2]; 48 h ref 34
  EC50: 6.57 µg/mL (≈ 12.4 µM)
D. magna [2]; 48 h ref 38
  EC50: 6.57 µg/mL (≈ 12.4 µM)
D. magna [2]; 48 h ref 39, listed as ketoconazole
  EC50: 1.51 µg/mL (≈ 2.84 µM)
D. magna [2]; 48 h ref 39
  EC50: 1.5 µg/mL (≈ 2.82 µM)
R. subcapitata [6]; 72 h ref 36
  EC50: 0.28 µg/mL (≈ 0.527 µM)
R. subcapitata [6]; 72 h ref 40
  EC50: 0.3 µg/mL (≈ 0.565 µM)
Green algae [3]; 72 h ref 38
  EC50: 0.28 µg/mL (≈ 0.527 µM)
Green algae [3]; 96 h ref 30
  EC50: 4.36 µg/mL (≈ 8.2 µM)

## N=C(N)c1ccc(OCCCC2CCN(CCCOc3ccc(C(=N)N)cc3)CC2)cc1 [T-2307]
Daphnia magna; D. magna, 48 h
  EC50 (effective concentration causing 50% of immobility): 17.93 µg/mL
  immobility: 90%
Daphnia magna
  Hazard Ranking: ** (Harmful: (<10 mg L^−1 ≤ 100 mg L^−1))
Raphidocelis subcapitata
  Hazard Ranking: ** (Harmful: (<10 mg L^−1 ≤ 100 mg L^−1))
Raphidocelis subcapitata; R. subcapitata, 72 h
  EC50 (effective concentration causing 50% growth inhibition): 14.34 µg/mL (≈ 32.8 µM)
Raphidocelis subcapitata; R. subcapitata, 72 h, 50 mg L^−1
  growth inhibition: around 82%
Aliivibrio fischeri; A. fischeri, 30 min
  EC50 (effective concentration causing 50% luminescence inhibition): 22.58 µg/mL (≈ 51.6 µM)
Aliivibrio fischeri; A. fischeri, 30 min, 50 mg L^−1
  luminescence inhibition: ~75%
[7]
  mutagenicity (result in words): non-positive mutagenicity
  mutagenicity ratio: < 2

## CC(C)(C)C(O)(CCc1ccc(Cl)cc1)Cn1cncn1 (centres unmarked) [Tebuconazole]
D. magna [1]
  Hazard Ranking: *** (Toxic (<1 mg L^−1 ≤ 10 mg L^−1))
R. subcapitata [4]
  Hazard Ranking: *** (Toxic (<1 mg L^−1 ≤ 10 mg L^−1))
D. magna [2]; 48 h ref 41
  EC50: 2.37 µg/mL (≈ 7.7 µM)
D. magna [2]; 48 h ref 42
  EC50: 6.75 µg/mL (≈ 21.9 µM)
R. subcapitata [6]; 72 h ref 42
  EC50: 2.09 µg/mL (≈ 6.79 µM)

## O[C@@](Cn1cnnn1)(c1ccc(F)cc1F)C(F)(F)c1ccc(-c2ccc(OCC(F)(F)F)cc2)cn1 [VT-1161, oteseconazole]
Daphnia magna; D. magna, 48 h
  immobility: 100%
Daphnia magna; Daphnia magna, read-out: EC50 (effective concentration causing 50% of immobility), D. magna, 48 h
  EC50: 20.9 µg/mL (≈ 39.7 µM)
Daphnia magna
  Hazard Ranking: ** (Harmful: (<10 mg L^−1 ≤ 100 mg L^−1))
Raphidocelis subcapitata
  Hazard Ranking: ** (Harmful: (<10 mg L^−1 ≤ 100 mg L^−1))
Raphidocelis subcapitata; Raphidocelis subcapitata, read-out: EC50 (effective concentration causing 50% growth inhibition), R. subcapitata, 72 h
  EC50: 27.9 µg/mL (≈ 52.9 µM)
Raphidocelis subcapitata; Raphidocelis subcapitata, R. subcapitata, 72 h, 50 mg L^−1
  inhibition at 50 µg/mL: ~65%
Aliivibrio fischeri; Aliivibrio fischeri, 0.5 h, read-out: EC50 (effective concentration causing 50% luminescence inhibition), A. fischeri, 30 min
  EC50: 22.4 µg/mL (≈ 42.5 µM)
Aliivibrio fischeri; Aliivibrio fischeri, 0.5 h, A. fischeri, 30 min, 50 mg L^−1
  inhibition at 50 µg/mL: ~63%
Aliivibrio fischeri; GHS, from EC50 A. fischeri 30 min, this study
  Hazard Ranking: ** (Harmful: (<10 mg L^−1 ≤ 100 mg L^−1))
[7]
  mutagenicity (result in words): non-positive mutagenicity
  mutagenicity ratio: < 2
[8]; A. fischeri, R. subcapitata, D. magna, read-out: EC50 values, range over the species tested
  EC50: 20.9 to 27.9 µg/mL (≈ 39.7 to 52.9 µM)
[8]; EC50 values between 10 mg L^−1 and 100 mg L^−1
  GHS classification (in words): harmful

## CC(C)(C)C(=O)C(Oc1ccc(Cl)cc1)n1ccnc1 (centres unmarked) [climbazole]
D. magna [2]; exposure time not printed ref 30
  EC50: 15.99 µg/mL (≈ 54.6 µM)
